According to patent US20260199564A1, “METHOD OF PREVENTING BLOOD COAGULATION AND DRUG-ELUTING IMPLANT FOR PERCUTANEOUS CORONARY INTERVENTION” (priority 2023, published 2026):

Assays:
VCAM-1 = test: LPS-induced VCAM-1 mRNA expression in HUVECs; assay type: cell-based, human; conditions: 1, 3, 10 μM for 1 h prior to LPS (1 μg/ml) stimulation for 24 h
Protocol: (§1) HUVECs were treated for 1 h with ginsenoside CK (1 μM, 3 μM, and 10 μM) prior to LPS (1 μg/ml) stimulation for 24 h. (A) ICAM-1 (B) VCAM-1 mRNA expression. Values are means±SEM of 3 independent experiments. Statistical significance assessed by one-way ANOVA followed by Scheffe post-hoc test for multiple comparisons (***P<0.01, *P<0.05 vs LPS).
(§2) Treatment of HUVECs with LPS (1 μg/ml) increased ICAM-1 and VCAM-1 mRNA expression. Twenty-four hours after LPS treatment, maximal expression of ICAM-1 and VCAM-1 was attained. To determine whether LPS-stimulated ICAM-1 and VCAM-1 mRNA expression is affected by ginsenoside CK, HUVECs were treated for 1 h with ginsenoside CK (1 μM, 3 μM, and 10 μM) prior to LPS (1 μg/ml) stimulation for 24 h.

[1] = Releasing kinetics of ginsenoside CK from two-layer coated balloon (CK DEB), FIG. 4; assay type: physicochemical
CYP2C9 = target: T1, CYP2C9 (Homo sapiens, UniProt P11712); test: Cytochrome P450 inhibition in human liver microsomes using LC-MS/MS, CYP2C9; assay type: in vitro ADME
T1 construct: with pooled human liver microsomes; from tissue; host or cells: pooled human liver microsomes
T1 sequence (P11712 whole entry): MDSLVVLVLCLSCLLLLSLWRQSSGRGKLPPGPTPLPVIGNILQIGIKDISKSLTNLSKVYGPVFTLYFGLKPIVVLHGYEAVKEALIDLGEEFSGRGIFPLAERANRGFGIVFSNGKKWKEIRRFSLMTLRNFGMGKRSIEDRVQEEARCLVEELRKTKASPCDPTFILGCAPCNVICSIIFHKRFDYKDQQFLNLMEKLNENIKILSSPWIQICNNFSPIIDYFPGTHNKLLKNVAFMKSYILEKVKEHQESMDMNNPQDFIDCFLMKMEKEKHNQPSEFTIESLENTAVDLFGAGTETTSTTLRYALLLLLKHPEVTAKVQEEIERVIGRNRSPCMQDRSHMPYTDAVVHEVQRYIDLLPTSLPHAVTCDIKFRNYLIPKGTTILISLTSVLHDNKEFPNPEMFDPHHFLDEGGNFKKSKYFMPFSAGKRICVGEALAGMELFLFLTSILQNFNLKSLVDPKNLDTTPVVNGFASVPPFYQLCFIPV
Protocol: In IC50 shift experiments, CK (0.2 μL prepared in DMSO) was pre-incubated for 30 min at 37° C., at 8 different concentrations, with pooled human liver microsomes (0.1-1 mg/mL, depending on which enzyme was assessed) in the absence or presence of 1 mM NADPH in 100 μL of potassium phosphate buffer (100 mM, pH 7.4) and MgCl2 (2.5 mM). After the pre-incubation, a substrate mixture containing a probe substrate in 100 μL of potassium phosphate buffer (100 mM, pH 7.4), MgCl2 (2.5 mM), and NADPH (1 mM) was added for measurement of the corresponding P450 activities. Incubations were terminated by addition of 200 μL methanol. Samples were then extracted and centrifuged and the supernatant was subjected to validated LC-MS/MS analysis.

ICAM-1 = test: LPS-induced ICAM-1 mRNA expression in HUVECs; assay type: cell-based, human; conditions: 1, 3, 10 μM for 1 h prior to LPS (1 μg/ml) stimulation for 24 h
Protocol: as §1, §2

CC(C)=CCC[C@](C)(O[C@@H]1O[C@H](CO)[C@@H](O)[C@H](O)[C@H]1O)[C@H]1CC[C@]2(C)[C@@H]1[C@H](O)C[C@@H]1[C@@]3(C)CC[C@H](O)C(C)(C)[C@@H]3CC[C@]12C [CK, Ginsenoside compound K]
LPS-stimulated VCAM-1 mRNA expression (VCAM-1): significantly inhibited | amount of residual drug ([1]; after 90 days of drug release): beyond the detection/quantitation limit | drug released (initial burst) ([1]; within one month): ~80% | inhibition at concentration of 50 μM (CYP2C9; 50 μM, 30 min pre-incubation in the presence or absence of NADPH): did not inhibit | IC50 (CYP2C9; pooled human liver microsomes, substrate Diclofenac): > 50 µM | LPS-stimulated ICAM-1 mRNA expression (ICAM-1): significantly inhibited
